Converted amounts (≈) assume the structure as drawn.

Assay [1] concerns Candida albicans (MY 1055). It counts as cell-based. The settings on record: MY 1055, 24 h. As for the experimental part: (§1) The compounds of the present invention are active against many fungi and particularly against Candida species. The antifungal properties may be illustrated with the minimum fungicidal concentration (MFC) determination against certain Candida organisms in a microbroth dilution assay carded out in a Yeast Nitrogen Base (DIFCO) medium with 1% dextrose (YNBD).
(§2) In a representative assay, compounds were solubilized in 100% dimethyl sulfoxide (DMSO) at an initial concentration of 5 mg/ml. Once dissolved, the drug stock was brought to a concentration of 512 μg/ml by dilution in water such that the final DMSO concentration was about 10 percent. The solution was then dispensed via a multichannel pipetter into the first column of a 96-well plate (each well containing 0.075 ml of YNBD), resulting in a drug concentration of 256 μg/ml. Compounds in the first column were diluted 2-fold across the rows yielding final drug concentration ranging from 256 μg/ml to 0.12 μg/ml.
(§3) Four-hour broth cultures of organisms to be tested were adjusted using a spectrophotometer at 600 nm to equal a 0.5 McFarland Standard. This suspension was diluted 1:100 in YNBD to yield a cell concentration of 1-5×10^4 colony forming units (CFU)/ml. Aliquots of the suspension (0.075 ml) were inoculated into each well of the microtiter plate resulting in a final cell inoculum of 5-25×10^3 CFU/ml and final drug concentrations ranging from 128 μg/ml to 0.06 μg/ml. Each assay included one row for drug-free control wells and one row for cell-free control wells.
(§4) After 24 hours of incubation, the microtiter plates were shaken gently on a shaker to resuspend the cells. The MIC-2000 inoculator was used to transfer a 1.5 microliter sample from each well of the 96-well microtiter plate to a single reservoir inoculum plate containing Sabouraud dextrose agar (SDA). The inoculated SDA plates were incubated for 24 hours at 35° C. and then read for minimum fungicidal concentration (MFC). MFC is defined as the lowest concentration of drug showing no growth or less than 4 colonies per spot. […]

Assay [2] relates to Candida parapsilosis (MY 1010). It is filed as cell-based. The settings on record: MY 1010, 24 h. As for the experimental part:
as §1, §2, §3, §4

Assay [3] has as its system Candida tropicalis (MY 1012). It is filed as cell-based. The following applies: MY 1012, 24 h. As for the experimental part:
as §1, §2, §3, §4

In another assay the test system is Candida albicans MY 1055. Nature of the assay: In vivo effectiveness: kidney CFU in mice infected I.V. with Candida albicans. The settings on record: 0.07 mg/kg i.p. twice daily for four consecutive days; female DBA/2 mice; CFU per gram of kidneys after seven days. On the procedure: The in vivo effectiveness of the compounds against fungi may be seen in the following assay.
Growth from an overnight SDA culture of Candida albicans MY 1055 was suspended in sterile saline and the cell concentration determined by hemacytometer count and the cell suspension adjusted to 3.75×10^5 cells/ml. Then 0.2 milliliter of this suspension was administered I.V. in the tail vein of mice so that the final inoculum is 7.5×10^4 cells/mouse.
The assay was then carried out by administering aqueous solutions of Compound I at various concentrations intraperitoneally (I.P.), twice daily (b.i.d.) for four consecutive days to 18 to 20 gram female DB A/2 mice, which previously had been infected with Candida albicans (MY 1055) in the manner described above. Distilled water was administered I.P. to C. albicans challenged mice as controls. After seven days, the mice were sacrificed by carbon dioxide gas, paired kidneys were removed aseptically and placed in sterile polyethylene bags containing 5 milliliters of sterile saline. The kidneys were homogenized in the bags, serially diluted in sterile saline and aliquots spread on the surface of SDA plates. The plates were incubated at 35° C. for 48 hours and yeast colonies enumerated for determination of colony forming units (CFU) per gram of kidneys. […]

For `CCC(C)CC(C)CCCCCCCCC(=O)N[C@H]1C[C@@H](O)[C@@H](NC(=O)[C@@H](N)CN)NC(=O)[C@@H]2[C@@H](O)CCN2C(=O)[C@H]([C@H](O)CCN)NC(=O)[C@H]([C@H](O)[C@@H](O)c2ccc(O)cc2)NC(=O)[C@@H]2C[C@@H](O)CN2C(=O)[C@H]([C@@H](C)O)NC1=O` (stereo partly shown) [Compound I], the “minimum fungicidal concentration (MFC)” value in assay [1] worked out at 1 µg/mL (≈ 0.88 µM); in assay [2], 0.5 µg/mL (≈ 0.44 µM); in assay [3] it was 1 µg/mL (≈ 0.88 µM). Moreover, the “reduction of recoverable Candida CFUs” value in the assay on Candida albicans MY 1055 is “greater than 99%”.

Values taken from patent US5516756A, “Aza cyclohexapeptide compounds” (Merck & Co., Inc., priority 1994, dated 1996).
